Reference: patent publication US7732185B2, “Plasmid having response to dioxins, transgenic cell for measuring dioxins, dioxins sensing method and biosensor using the same” (priority 2004, dated 2010)

How the values were obtained:
Assay type in all cases: cell-based, mouse
[1] = system: aryl hydrocarbon receptor (AhR); test: DRESSA method: SEAP protein activity in conditioned medium of HeDS cells; conditions: for induction of SEAP protein activity compared with DMSO control: HeDS cells stimulated by 1 μM
Method: Each cell clump is treated with trypsin to be removed, transferred to a 96-well culture plate every two wells, and cultured for one week continuously (S5). After the cells become confluent, the culture medium of each well is exchanged with 100 μl of α-MEM containing 1% FBS, and the cells are cultured for 24 hours in the presence or absence of 10 pM TCDD. Then, using 5 μl of the conditioned medium, a predetermined SEAP assay is performed to establish HeDS cells that react with a low concentration of dioxin with the highest sensitivity, and the cells are used for a dioxins sensing bioassay (S6). In this specification, the bioassay method is referred to as DRE-based Sensing of dioxin via Secreted Alkaline phosphatase (hereinafter, abbreviated as the DRESSA method).
Further, AhR14 forms a complex with Arnt15 that is a coactivator, enters the nuclear, and is combined with MMTV-DRE11 to activate. As a result, transcription of downstream SEAP gene 12 is promoted, messenger RNA 16 is produced and translated to protein 18 with ribosome 17, and the protein is promptly secreted outside the cell as a SEAP protein. Accordingly, by measuring the activity of the SEAP protein in the conditioned medium, it is possible to determine a level of dioxins to which the cells are exposed. First, HeDS cells with a concentration of 2×10^4/well are seeded in each well of a 96-well culture plate. As a culture medium, 100 μl of A-MEM containing […] is filled into each well (S1). After the cells are cultured for 24 hours to be fixed to the bottom of each well, the culture medium is exchanged, and 1 μl of a liquid sample containing TCDD is added (S2). After culturing for 24 hours, the conditioned medium is sampled every 5 μl (S3), and the SEAP protein activity is measured by procedures as described below.
(§1) The SEAP protein activity in the conditioned medium is determined as described below. To 5 μl of the conditioned medium is added 15 μl of buffer, the resultant is incubated at 65° C. for 30 minutes, and endogenous alkaline phosphatase activity is inactivated. Added further is 20 μl of buffer containing L-homoarginine that is an inhibitor of endogenous alkaline phosphatase, and the resultant is kept standing for 5 minutes. Then, 15 μl of substrate CSPD is added thereto, the resultant is kept standing at a dark place for 30 minutes, and the degree of chemical emission is measured by a luminometer.

[2] = system: aryl hydrocarbon receptor (AhR); test: fast DRESSA method: floating HeDS cells, SEAP protein activity in conditioned medium
Method: as §1
In order to perform the above-mentioned DRESSA method easily and economically in a short time, it is possible to simplify the sensing procedures as described above, as shown in FIG. 1a. In other words, 50 μl of the culture medium containing 1 μl of sample is filled into each well of a 96-well culture plate, and immediately, HeDS cells floated in the culture medium are added (total 100 μl) (S1).
The conditioned medium is sampled three to four hours later (S2), and the SEAP protein activity is measured (S3). By using this scheme, it is possible to sense 1 pM of TCDD regarded as the sensing limit of the current method within four to five hours. Hereinafter, this method is referred to as a fast DRESSA method. The fast DRESSA method has no difference in sensing sensitivity from the DRESSA method.

[3] = system: aryl hydrocarbon receptor (AhR); test: SEAP reporter plasmid comparison of sensor sequences (DRE, MMTV-DRE, MMTV) in Hepa-1c1c7 cells stimulated by TCDD
Method: SEAP reporter plasmids having MMTV-DRE or only DRE as a sensor sequence were prepared, and each of the plasmids was gene-introduced to a Hepa-1c1c7 cell. In addition, details of gene introduction will be described later. The cells were stimulated by TCDD, and increases in SEAP activity were compared. In the cell to which was introduced the SEAP reporter plasmid only having DRE as a sensor sequence, the SEAP activity increased by 4.5 times by the stimulus of TCDD.
In contrast thereto, in the cell (Hepa 1c1c7-DRE-SEAP cell, hereinafter, referred to as an HeDS cell) to which was introduced the SEAP reporter plasmid having MMTV-DRE as a sensor sequence, the SEAP activity increased by 43.2 times by the stimulus of TCDD. […] This means that the sequence of MMTV strongly amplifies the response of DRE to dioxin. The high reactivity of MMTV-DRE enables a fast assay with low cost.
as §1

O=c1cc(-c2ccccc2)oc2ccc3ccccc3c12 [βNF, β-naphthoflavone]
induction of SEAP protein activity compared with DMSO control [1]: remarkable induction

Clc1cc2c(cc1Cl)Oc1cc(Cl)c(Cl)cc1O2 [TCDD, 2,3,7,8-tetrachlorodibenzo-p-dioxin]
time after addition at which significant increases in SEAP protein activity were already observed ([2]; 6 pM TCDD): three
time after addition at which significant increases in SEAP protein activity were already observed ([2]; 1 nM TCDD): three
concentration of TCDD possible to sense ([2]; within four to five hours): 1 pM
increase in SEAP activity by the stimulus of TCDD ([3]; HeDS cell: SEAP reporter plasmid having MMTV-DRE as sensor sequence): 43.2 times
increase in SEAP activity by the stimulus of TCDD ([3]; Hepa-1c1c7 cell with SEAP reporter plasmid only having DRE as sensor sequence): 4.5 times
increase in SEAP activity by the stimulus of TCDD ([3]; cell with SEAP reporter plasmid only having MMTV as sensor sequence): did not increase
time after addition at which significant increases in SEAP protein activity are observed ([1]; 6 pM TCDD, DMSO control, traced up to 10 hours): four
sensing with a reduced number of cells ([1]; 1 nM TCDD, 50 cells in one well of a 96-well plate): can be sensed sufficiently
concentration of TCDD possible to sense ([1]; 5,000 HeDS cells): 0.5 pM
concentration at which significant increases in SEAP protein activity were already observed ([1]; HeDS cells exposed to 0 to 1 pM TCDD): 0.25 pM
concentration up to which SEAP protein activity increases dependent on the concentration ([1]; HeDS cells, culture medium): up to 100 pM
time for which increases in SEAP protein activity continued before reaching equilibrium ([1]; TCDD stimulation, traced up to 72 hours): 48 h

Cc1ccc2cc3c(ccc4ccccc43)c3c2c1CC3 [3-MC, 3-methylcholanthrene]
induction of SEAP protein activity compared with DMSO control [1]: remarkable induction

c1ccc2c(c1)cc1ccc3cccc4ccc2c1c34 [B[a]P, benzo[a]pyrene]
induction of SEAP protein activity compared with DMSO control [1]: remarkable induction
